Data from patent publication US20240050344A1, “Methods of Enhancing Natural Defense in the Oral Cavity” (Colgate-Palmolive Company, priority 2021, published 2024).

Assays:
U937 = assay: Phagocytosis assay with Latex Beads-Rabbit IgG-FITC, U937 cells; type: cell-based; settings: FIG. 6
Text: (§1) Phagocytosis is a very important physiological process which is characterized by the ingestion of foreign particles and killing of microorganisms by phagocytic leukocytes (monocytes, macrophages, granulocytes). The phagocytic leukocytes are part of a first line of natural defense against potential pathogens. Phagocytotic active of phagocytes can be measured using a phagocytosis assay. The phagocytosis assay uses fluorescently-opsonized latex beads which are contacted with phagocytic cells. After maintaining the beads in contact with the cell, fluorescent reading of cells is used to assess the degree of phagocytosis. Thus, the degree of phagocytosis from cells treated with different compounds can be compared quantifiably.
EDTA chelates Zinc. Phagocytotic immune cells were contacted with fluorescently-opsonized latex beads in the presence of ZnCl2 and EDTA to determine the effect addition of zinc-chelating EDTA changes the effects of zinc on the phagocytotic activity of phagocytotic immune cells.
(§2) 96-well plates were seeded with either phagocytic immune cells THP1 (cat #TIB202, ATCC) and U937 (cat #CRL-1593.2, ATCC) at 5×10^4 cells/well in 100 μl of RPMI-1640 medium containing 10 ng/ml phorbol myristic acid (PMA, Sigma) for 48 hr in a CO2 incubator at 37° C.
(§3) Medium was changed with 100 μl/ml of RPMI-1640 (Item #500290, Cayman). U937 cells were treated with ZnCl2 or ZnCl2 and EDTA. THP1 cells were treated with ZnO or ZnO plus EDTA. 10 μl of the Latex Beads-Rabbit IgG-FITC solution were added to each well. Plates were mixed gently and cells were incubated in a CO2 incubator at 37° C. for 24-48 hrs.
(§4) After incubation, plates were centrifuged for 5 minutes at 400×g at room temperature. Supernatant was carefully aspirated. 50 μl of Trypan blue solution was added to each well and plates were incubated for 1-2 mins at room temperature. Plates were centrifuged for 5 minutes at 400×g at room temperature. Supernatant was carefully aspirated. Fluorescent intensity was read using in plate reader at excitation 485/emission 535 nm.

THP1 = assay: Phagocytosis assay with Latex Beads-Rabbit IgG-FITC, THP1 cells; type: cell-based; settings: FIG. 7; for phagocytosis activity: versus EDTA control
Text: as §1, §2, §3, §4

`O=C(O)CN(CCN(CC(=O)O)CC(=O)O)CC(=O)O` [EDTA] was tested. Which phagocytosis activity (U937; EDTA alone versus untreated control) did it give?
The phagocytosis activity was “No difference in phagocytosis activity”.

Which phagocytosis activity (U937; 12.5 μM, versus untreated control) does the source give for `[Cl-].[Cl-].[Zn+2]` [ZnCl2] here?
The phagocytosis activity was “more phagocytosis activity than untreated control cells”.

And the phagocytosis activity (U937; 25 μM, versus untreated control)?
The phagocytosis activity was “more phagocytosis activity than untreated control cells”.

For `[O]=[Zn]` [ZnO, zinc oxide], which “phagocytosis activity, comparison among the tested ZnO amounts” value (THP1; 6.25 μM compared with 12.5 μM and 25 μM) is on record?
The value was “greatest increase”.

And the phagocytosis activity (THP1; 6.25 μM)?
The phagocytosis activity was “more phagocytosis activity than EDTA control cells”.

What about the phagocytosis activity (THP1; 12.5 μM) of the same compound?
The phagocytosis activity was “more phagocytosis activity than EDTA control cells”.

What about the phagocytosis activity (THP1; 25 μM) of the same compound?
The phagocytosis activity was “more phagocytosis activity than EDTA control cells”.
